Where two headings read alike, the source gives them in different places.

For data set [1], the system named is LTB4 production from rat peritoneal cells (Rat PEC). The data set can be described thus: Inhibitory Activity on LTB4 Production from Rat Peritoneal Cells. In kind it is cell-based, rat (Jcl-SD). The settings on record: 0.25 h, Ca-ionophore A23187 1 μM, 15 min, RIA. The procedure:
Inhibitory Activity on LTB4 Production from Rat Peritoneal Cells
To each male Jcl-SD rat (300-350 g weight) was intraperitoneally administered 10 ml of Hanks' solution containing 0.1% bovine serum albumin (hereinafter referred to as BSA) and 25 U/ml of heparin. Then the ascites were collected and centrifuged (1500 rpm×5 min., at 4° C.). The resulting cell fraction (precipitation) was suspended and adjusted at […] with Hanks' solution containing 0.1% BSA. The thus obtained suspension (800 μl, 8×10^5 cells) was dispensed into polypropylene tubes and incubated at 37° C. 10 min, and successively for 10 min. after addition of serial dilutions (100 μl each) of a test sample. Next, 100 μl of Ca-ionophore A23187 (final concentration: 1 μM) was added to the resulting suspension and allowed to stand for 15 min, then the mixture was ice-cooled to terminate the reaction. The reaction mixtures were centrifuged (3000 rpm×5 min., at 4° C.) to give supernatants, which were collected and stored at -80° C. until LTB4 assay. After thawed, the LTB4 assay was performed by RIA using ^3 H--LTB4.

Data set [2] concerns IL-1 production in THP-1 cells. The data set can be described thus: Inhibitory Activity on IL-1 Production caused by The Stimulation of LPS in THP-1 Cells. In kind it is cell-based. The conditions noted are these: Homo sapiens, read-out: IC50 THP-1 IL-1. The procedure: Serial dilutions (100 μl each) of a test compound and LPS (final concentration: 10 μg/ml) were further added to each well and the plate was kept at 37° C. for 24 hours. Then, the supernatant was collected from each well and centrifuged (3000 rpm×10 min.). […]

Data set [3] deals with Tunica Mucosa Ventriculi of rat (stomach). In words: Inducing Activities on Injury at Tunica Mucosa of Rat (stomach). It is filed as in vivo, rat (LEW/Crj). The conditions noted are these: oral, 6 hours. The procedure:
Inducing Activities on Injury at Tunica Mucosa of Rat
Sixs LEW/Crj male rats (six week old, 140-160 g weight) were used per one group. A drug was orally administered to each rat fasted for 24 hours, then six hours later each rat were bled to death under anesthesia of ether. From each rat was taken out the stomach, in which about 6 ml of physiological saline was filled, then the stomach was steeped in 1% formalin solution for 15 min. The stomach was incised along with curvatura ventriculi major and observed with an actual-microscope to see the injured condition thereof, then the number of rats injuried at stomach and the length of hemorrhage macula were determined. The degree of the injury was shown as Lesion index (mm) which was the cumulative value of the length of hemorrhage macula in each administered group.

The subject of data set [4] is Carrageenin-Induced Paw Edema of Rat. In words: Inhibitory Activity on Carrageenin-Induced Paw-Edema of Rat. In kind it is in vivo, rat (LEW/Crj). The settings on record: oral 1 hour before carrageenin, inhibitory rate 3 or 4 hours after carrageenin, read-out: ED30 Inhibitory Activities to Carrageenin-Induced Paw Edema of Rat. The procedure: Inhibitory Activity on Carrageenin-Induced Paw-Edema of Rat
Namely, male LEW/Crj rats (6-week-old, 140-170 g weight) fasted for 24 hours were used (7 to 8 rats per group).
A solution (0.1 ml) containing 1% λ-carrageenin (PICININ-A, Zushikagaku) was injected into the subplantar tissue of the right hind paw of each rat orally administered a test compound before 1 hour, to induce edema. The paw volume was calculated plethysmographically before and after the injection at an interval of 1 hour until 5 hours later. The inhibitory rate of the drug-administered group was calculated, with the vehicle group as the reference, to determine the efficacy of the test compounds by Dunnett-t assay. The anti-edema activity was indicated as ED30 calculated, by regression analysis method, based on the inhibitory rate shown 3 or 4 hours later after the administration of carrageenin.
(In general: Carrageenan injected into the paw causes an acute inflammation.)

The subject of data set [5] is PGE2 production from rat synovia cells (Rat SVC). In words: Inhibitory Activity on PGE2 Production from Rat Synovia Cells. In kind it is cell-based, rat (LEW/Crj). The settings on record: human IL-1 β 30 U/ml, 15 hours, RIA. The procedure: Inhibitory Activity on PGE2 Production from Rat Synovia Cells
LEW/Crj rats (male, 300-350 g weight) were subjected to synovectomy. The isolated synovia cells were subcultivated under a certain condition up to a well amount of cells for the experiment. The cells were dispensed to each well of a 96-well microtiter plate at a concentration of 4×10^3 /160 μl/well and then cultivated for 72 hours in a CO2 incubator. Serial dilutions (20 μl each) of a test compound and human IL-1 β(final concentration: 30 U/ml) were added to the wells and incubated for 15 hours in a Co2 incubator. After the incubation, the supernatant was collected from each well and stored at -80° C. until PGE2 assay. […]

The mark [6] stands for this setting: THP-1 cells, LPS 10 μg/ml, 24 hours, RIA of IL-1 β.

What is called IC50 is the concentration at which inhibition is half-maximal. Turning to `CC(C)(C)c1cc(C=C2CCN(C(=O)NO)C2=O)cc(C(C)(C)C)c1O` [Ia-4, N-(N-hydroxycarbamoyl)-3-(3,5-di-tert-butyl-4-hydroxybenzylidene)pyrrolidin-2-one], the half-inhibitory concentration (IC50) was found to be 3000 nM in data set [1], 25000 nM in data set [2] (setting [6]) and 200 nM in data set [5]. Besides, the “Injury at Tunica Mucosa Ventriculi, Degree of Injury (Lesion index)” value (“Injury … (Lesion index)” for short) in data set [3] (100 mg/kg) turned out to be 0 ± 0 mm; in data set [3] (200 mg/kg) it was 0 ± 0 mm; in data set [3] (400 mg/kg) it was 0.2 ± 0.1 mm. For the same compound, the entries for the “Injury at Tunica Mucosa Ventriculi, Number Occurrence/Sample” value (shortened to “Injury … Number Occurrence/Sample”) in data set [3] (100 mg/kg), in data set [3] (200 mg/kg) and in data set [3] (400 mg/kg) were 0/8, 0/8 and 3/8, respectively. Also, the ED30 in data set [4] was determined as 16 mg/kg.
As for `CON1CCC(=Cc2cc(C(C)(C)C)c(O)c(C(C)(C)C)c2)C1=O` [Reference Compound, N-methoxy-3-(3,5-di-tert-butyl-4-hydroxybenzylidene)-2-pyrrolidone, reference compound], the 50% inhibitory concentration (IC50) is 6000 nM in data set [1]; > 100000 nM in data set [2] (THP-1, 24 h); 5 nM in data set [5]. Besides, the “Injury … (Lesion index)” value in data set [3] (3 mg/kg) is listed as 4.5 ± 1.3 mm; in data set [3] (10 mg/kg), 7.2 ± 1.2 mm; in data set [3] (30 mg/kg), 11.2 ± 2.2 mm. Further, the “Injury … Number Occurrence/Sample” value in data set [3] (3 mg/kg), in data set [3] (10 mg/kg) and in data set [3] (30 mg/kg) was 6/6 throughout. Moreover, the ED30 in data set [4] worked out at 3 mg/kg.
As for `CC(C)(C)c1cc(C=C2CCN(C(N)=O)C2=O)cc(C(C)(C)C)c1O` [Ia-1, N-carbamoyl-3-(3,5-di-tert-butyl-4-hydroxybenzylidene)pyrrolidin-2-one], the IC50 in data set [1] stood at 4000 nM; in data set [2] (setting [6]) it was 20000 nM; in data set [5], 400 nM. The “Injury … (Lesion index)” value in data set [3] (10 mg/kg), in data set [3] (100 mg/kg) and in data set [3] (200 mg/kg) was 0 ± 0 mm in each case. Besides, the “Injury … Number Occurrence/Sample” value in data set [3] (10 mg/kg), in data set [3] (100 mg/kg) and in data set [3] (200 mg/kg) was 0/6 each time. Moreover, the ED30 in data set [4] worked out at 18 mg/kg.
As to `CN(O)C(=O)N1CCC(=Cc2cc(C(C)(C)C)c(O)c(C(C)(C)C)c2)C1=O` [Ia-6, N-(N-hydroxy-N-methylcarbamoyl)-3-(3,5-di-tert-butyl-4-hydroxybenzylidene)pyrrolidin-2-one], the IC50 in data set [1] turned out to be 3000 nM; in data set [2] (setting [6]), 34000 nM; in data set [5], 9 nM. Also, the “Injury … (Lesion index)” value in data set [3] (10 mg/kg) is on record as 0 ± 0 mm; in data set [3] (30 mg/kg) it was 0.6 ± 0.5 mm; in data set [3] (100 mg/kg) it was 1.0 ± 0.5 mm. The entries for the “Injury … Number Occurrence/Sample” value in data set [3] (10 mg/kg), in data set [3] (30 mg/kg) and in data set [3] (100 mg/kg) were 0/6, 3/6 and 3/6, respectively. Besides, the ED30 in data set [4] is 9 mg/kg.

Source of the values: US5319099A, “3-benzylidene-1-carbamoyl-2-pyrrolidone compounds useful as antiinflammatory agents” (Shionogi Seiyaku Kabushiki Kaisha, priority 1991, dated 1994).
